We go through 6 compounds from patent US5352705A, “Inhibitors of farnesyl protein transferase” (Merck & Co., Inc., priority 1992, dated 1994).

One assay addresses T1, Farnesyl-protein transferase (Ftase) from bovine brain (Bos taurus, UniProt P29702+P49355).
T1 construct: Farnesyl-protein transferase (Ftase) from bovine brain was chromatographed on DEAE-Sephacel; from tissue; host or cells: bovine brain, partially purified (DEAE-Sephacel, N-octyl agarose, mono Q HPLC)
Kind of assay: In vitro inhibition of ras farnesyl transferase. It counts as biochemical. Particulars: Ras-CVLS 3.5 μM, 0.25 μM [3H]FPP, partially purified bovine brain enzyme; read-out: IC50 (concentration of compound which gives 50% inhibition of FTase under the described assay conditions). How it is done: In vitro inhibition of ras farnesyl transferase
Farnesyl-protein transferase (Ftase) from bovine brain was chromatographed on DEAE-Sephacel (Pharmacia, 0-0.8 M NaC1 gradient elution), N-octyl agarose (Sigma, 0-0.6 M Nacl gradient elution), and a mono Q HPLC column (Pharmacia, 0-0.3 M NaC1 gradient). Ras-CVLS at 3.5 μM, 0.25 μM [3H]FPP, and the indicated compounds were incubated with this partially purified enzyme preparation. The Ftase data presented below is a measurement of the ability of the test compound to inhibit RAS farnesylation in vitro.
*(IC50 is the concentration of compound which gives 50% inhibition o
FTase under the described assay conditions)
`CC[C@H](C)[C@H](NC[C@@H](N)CS)C(=O)Nc1ccccc1` [N-[2(R)-amino-3-mercaptopropyl]-L-isoleucine-anilide]: the IC50 is 63 nM.
Same read-out and setting: under `CC[C@H](C)[C@H](NC[C@@H](N)CS)C(=O)NCc1cccc(Cl)c1Cl` [N-[2(R)-Amino-3-mercaptopropyl]-L-isoleucine-2,3-dichlorobenzylamide] stands 25 nM.
On the same count and under the same terms, as for `CC[C@H](C)[C@H](NC[C@@H](N)CS)C(=O)NCCc1cccc(Cl)c1` [N-[2(R)-Amino-3-mercaptopropyl]-L-isoleucine-3-chlorophenethylamide], the figure is 63 nM.
Same read-out and setting: as for `CC[C@H](C)[C@H](NC[C@@H](N)CS)C(=O)Nc1cccc(C)c1C` [N-[2(R)-amino-3-mercaptopropyl]-L-isoleucine-2,3-dimethylphenylamide], the figure is 35 nM.

For the next assay, the system named is Ras farnesylation.
Assay: not given
As to conditions: cited from earlier work.
For `CC[C@H](C)C(=O)O[C@H]1C[C@@H](C)C=C2C=C[C@H](C)[C@H](CC[C@@H]3C[C@@H](O)CC(=O)O3)[C@H]21` [lovastatin], the “Inhibition of Ras farnesylation in vivo” value is listed as “Inhibition of Ras farnesylation in vivo has been demonstrated”.
For the compound `CC[C@H](C)C(=O)O[C@H]1CCC=C2C=C[C@H](C)[C@H](CC[C@@H]3C[C@@H](O)CC(=O)O3)[C@H]21` [compactin], the “Inhibition of Ras farnesylation in vivo” value is given as “Inhibition of Ras farnesylation in vivo has been demonstrated”.
